In ChEMBL document CHEMBL1201862, “PubChem BioAssay data set” (2004):
Counter-ions that a name gives are not always drawn.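 Grown in 96-well plates, cells were treated for 48 hours with each compound at five concentrations. Insufficient inhibition: endpoint recorded as highest concentration tested. GI50: concentration for 50% inhibition of growth.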 The source made the active and inactive calls. Cut-off read from the data, not from the text of the source: active = GI50 up to about 1.1 µM and inactive = higher.

Experiments:
Experiment in all cases: NCI tumour cell line growth inhibition, 48 h
CCRF-CEM = test system: CCRF-CEM
OVCAR-3 = test system: OVCAR-3
TK-10 = test system: TK-10
SR = test system: SR
UACC-62 = test system: UACC-62
SF-268 = test system: SF-268
LOX IMVI = test system: LOX IMVI
UO-31 = test system: UO-31
SW-620 = test system: SW-620
HCC 2998 = test system: HCC 2998
HL-60 = test system: HL-60
A549 = test system: A549
HOP-62 = test system: HOP-62
OVCAR-5 = test system: OVCAR-5
IGROV-1 = test system: IGROV-1
COLO 205 = test system: COLO 205
CAKI-1 = test system: CAKI-1
MDA-MB-435 = test system: MDA-MB-435
NCI/ADR-RES = test system: NCI/ADR-RES
MDA-MB-231 = test system: MDA-MB-231

SMILES | GI50 (CCRF-CEM) | GI50 (OVCAR-3) | GI50 (TK-10) | GI50 (SR) | GI50 (UACC-62) | GI50 (SF-268) | GI50 (LOX IMVI) | GI50 (UO-31) | GI50 (SW-620) | GI50 (HCC 2998) | GI50 (HL-60) | GI50 (A549) | GI50 (HOP-62) | GI50 (OVCAR-5) | GI50 (IGROV-1) | GI50 (COLO 205) | GI50 (CAKI-1) | GI50 (MDA-MB-435) | GI50 (NCI/ADR-RES) | GI50 (MDA-MB-231)
COc1ccc(C[C@H](N)C(=O)NC2C(CO)OC(n3cnc4c(N(C)C)ncnc43)C2O)cc1 (stereo partly drawn) | 0.145 µM (active) | 0.273 µM (active) | 0.67 µM (active) | 0.138 µM (active) | 0.152 µM (active) | 0.354 µM (active) | 0.112 µM (active) | 2.68 µM (inactive) | 0.143 µM (active) | 0.29 µM (active) | 0.141 µM (active) | 0.492 µM (active) | 0.427 µM (active) | 5.31 µM (inactive) | 0.451 µM (active) | 0.154 µM (active) | – | – | – | –
CNCc1cc(OC)ccc1-c1ccc(OC)c(OC)c1OC | > 92.9 µM (inactive) | > 70 µM (inactive) | > 100 µM (inactive) | > 100 µM (inactive) | > 100 µM (inactive) | > 100 µM (inactive) | > 96.8 µM (inactive) | > 88.1 µM (inactive) | > 96.4 µM (inactive) | > 88.7 µM (inactive) | 48.1 µM (inactive) | > 100 µM (inactive) | > 100 µM (inactive) | > 100 µM (inactive) | > 100 µM (inactive) | > 100 µM (inactive) | > 100 µM (inactive) | – | – | –
CC(C)(C=O)CC(C#N)/C(=N\NC(N)=O)C(=O)Nc1ccccc1C(N)=O (stereo not drawn) | > 100 µM (inactive) | > 100 µM (inactive) | > 100 µM (inactive) | > 100 µM (inactive) | > 100 µM (inactive) | > 100 µM (inactive) | > 100 µM (inactive) | > 100 µM (inactive) | > 100 µM (inactive) | > 100 µM (inactive) | > 100 µM (inactive) | > 100 µM (inactive) | > 100 µM (inactive) | > 100 µM (inactive) | > 100 µM (inactive) | – | > 100 µM (inactive) | – | – | –
COc1ccc2cccc(C(=N)c3ccc(C)c4c3CCC4)c2c1 | 6.58 µM (inactive) | 3.52 µM (inactive) | 11.6 µM (inactive) | 2.62 µM (inactive) | 4.18 µM (inactive) | 16.4 µM (inactive) | 11.7 µM (inactive) | 4.45 µM (inactive) | 5.38 µM (inactive) | 10.8 µM (inactive) | 2.67 µM (inactive) | 13.7 µM (inactive) | 7.26 µM (inactive) | 6.17 µM (inactive) | 6.15 µM (inactive) | 11.9 µM (inactive) | 3.95 µM (inactive) | – | – | –
Cc1cccc(C)c1NC(=O)C(=O)C(C#N)c1ccccc1Cl (stereo not drawn) | > 100 µM (inactive) | > 100 µM (inactive) | > 100 µM (inactive) | > 100 µM (inactive) | > 100 µM (inactive) | > 100 µM (inactive) | – | > 100 µM (inactive) | > 100 µM (inactive) | > 100 µM (inactive) | 80.2 µM (inactive) | > 100 µM (inactive) | > 100 µM (inactive) | > 100 µM (inactive) | > 100 µM (inactive) | > 100 µM (inactive) | > 100 µM (inactive) | – | – | –
COc1ccc2[nH]c3c(C)c4c(c(C)c3c2c1)CN(C)CC4 | 3.22 µM (inactive) | 16 µM (inactive) | 23.4 µM (inactive) | 23.4 µM (inactive) | 19.2 µM (inactive) | 18.9 µM (inactive) | 13.7 µM (inactive) | 16.4 µM (inactive) | 4.21 µM (inactive) | 16.9 µM (inactive) | 2.09 µM (inactive) | 17.7 µM (inactive) | 17.3 µM (inactive) | 23.7 µM (inactive) | 16.6 µM (inactive) | 17.4 µM (inactive) | 18.5 µM (inactive) | – | – | –
CC#CC#C/C=C1\C=CC2(OC=CC2O)O1 (stereo not drawn) | > 11.3 µM (inactive) | 7.52 µM (inactive) | > 23.3 µM (inactive) | > 12.7 µM (inactive) | 9.59 µM (inactive) | > 23.3 µM (inactive) | 11.9 µM (inactive) | 12.2 µM (inactive) | 8.28 µM (inactive) | > 16.2 µM (inactive) | > 14.1 µM (inactive) | 13.1 µM (inactive) | > 23.3 µM (inactive) | 4.23 µM (inactive) | > 16.7 µM (inactive) | 3.28 µM (inactive) | 14.8 µM (inactive) | – | – | –
Cc1cc2c3ccccc3n3c2c2c1OC1(C)CCC(C2C1)C3(C)C (stereo not drawn) | > 25 µM (inactive) | > 25 µM (inactive) | > 25 µM (inactive) | > 25 µM (inactive) | > 25 µM (inactive) | > 25 µM (inactive) | > 25 µM (inactive) | > 25 µM (inactive) | > 25 µM (inactive) | > 25 µM (inactive) | > 25 µM (inactive) | > 25 µM (inactive) | > 25 µM (inactive) | > 25 µM (inactive) | > 25 µM (inactive) | > 25 µM (inactive) | – | – | – | –
Cc1nc(-n2nc(-c3ccccc3)cc2-c2ccccc2)sc1C(=O)CC(=O)C(=O)Nc1ccc(O)cc1 | > 100 µM (inactive) | > 100 µM (inactive) | > 100 µM (inactive) | > 100 µM (inactive) | > 100 µM (inactive) | > 100 µM (inactive) | > 100 µM (inactive) | > 100 µM (inactive) | > 100 µM (inactive) | > 100 µM (inactive) | > 100 µM (inactive) | > 100 µM (inactive) | > 100 µM (inactive) | > 100 µM (inactive) | > 100 µM (inactive) | > 100 µM (inactive) | > 100 µM (inactive) | – | – | –
C1OC1C1CO1 (stereo not drawn) | 3.34 µM (inactive) | 39.7 µM (inactive) | > 100 µM (inactive) | 3.88 µM (inactive) | 13.6 µM (inactive) | 6.43 µM (inactive) | 21.1 µM (inactive) | > 100 µM (inactive) | 86.3 µM (inactive) | 96.4 µM (inactive) | 3.14 µM (inactive) | 30.1 µM (inactive) | 17.3 µM (inactive) | > 100 µM (inactive) | > 100 µM (inactive) | > 100 µM (inactive) | > 100 µM (inactive) | – | – | –
C=CCOC(C)(C)C1=CCC(C)CC1 (stereo not drawn) | – | > 100 µM (inactive) | > 100 µM (inactive) | > 10 µM (inactive) | > 100 µM (inactive) | > 100 µM (inactive) | – | > 100 µM (inactive) | > 100 µM (inactive) | > 100 µM (inactive) | > 100 µM (inactive) | > 100 µM (inactive) | > 100 µM (inactive) | > 100 µM (inactive) | > 100 µM (inactive) | > 100 µM (inactive) | > 100 µM (inactive) | > 100 µM (inactive) | – | –
O=C1c2ccccc2C(=O)c2c(O)c(NCCNCCO)cc(O)c21 | 3.05 µM (inactive) | 4.39 µM (inactive) | 5 µM (inactive) | 2.2 µM (inactive) | 11.5 µM (inactive) | 4.29 µM (inactive) | 3.73 µM (inactive) | 2.96 µM (inactive) | 2.79 µM (inactive) | 3.78 µM (inactive) | 4.69 µM (inactive) | 3.55 µM (inactive) | 3.93 µM (inactive) | 10.2 µM (inactive) | 1.91 µM (inactive) | – | 2.08 µM (inactive) | – | – | –
N=c1ccn2c(n1)O[C@H]1[C@H](O)[C@@H](CO)O[C@H]12 [ANCITABINE HYDROCHLORIDE] | – | – | > 1000 µM (inactive) | 0.183 µM (active) | 2.24 µM (inactive) | 7.05 µM (inactive) | 0.347 µM (active) | – | – | 33.7 µM (inactive) | 0.346 µM (active) | 0.198 µM (active) | 0.292 µM (active) | 24.7 µM (inactive) | 151 µM (inactive) | 154 µM (inactive) | 1.66 µM (inactive) | – | 2.35 µM (inactive) | 31.7 µM (inactive)
C(=C1/CCCCC([n+]2ccccc2)=N1)/c1ccccc1 | > 100 µM (inactive) | > 100 µM (inactive) | – | > 100 µM (inactive) | > 100 µM (inactive) | > 100 µM (inactive) | > 100 µM (inactive) | > 100 µM (inactive) | > 100 µM (inactive) | > 100 µM (inactive) | > 100 µM (inactive) | > 100 µM (inactive) | > 100 µM (inactive) | > 100 µM (inactive) | – | > 100 µM (inactive) | > 100 µM (inactive) | – | – | –
CCc1cccc(C(C)C)c1NC(=O)C(=O)C(Cc1nc2ccccc2nc1O)C(=O)OC (stereo not drawn) | 60.8 µM (inactive) | > 100 µM (inactive) | > 100 µM (inactive) | 38.5 µM (inactive) | > 100 µM (inactive) | 67.9 µM (inactive) | 45 µM (inactive) | > 100 µM (inactive) | – | > 100 µM (inactive) | > 100 µM (inactive) | > 100 µM (inactive) | > 100 µM (inactive) | > 100 µM (inactive) | > 100 µM (inactive) | 43.8 µM (inactive) | > 100 µM (inactive) | – | – | –
Clc1ccc2c(Cl)ncnc2c1 | > 100 µM (inactive) | > 100 µM (inactive) | > 100 µM (inactive) | > 100 µM (inactive) | > 100 µM (inactive) | > 100 µM (inactive) | > 100 µM (inactive) | > 100 µM (inactive) | > 100 µM (inactive) | > 100 µM (inactive) | > 100 µM (inactive) | > 100 µM (inactive) | > 100 µM (inactive) | > 100 µM (inactive) | > 100 µM (inactive) | > 100 µM (inactive) | > 100 µM (inactive) | – | – | –
CCS(CC)(CC)CC1CCCC2=CCC(P(=O)(c3ccccc3)c3ccccc3)CC21 (stereo not drawn) | 6.78 µM (inactive) | 13.7 µM (inactive) | 12.7 µM (inactive) | 6.27 µM (inactive) | 3.01 µM (inactive) | 11.4 µM (inactive) | 14.7 µM (inactive) | 6.32 µM (inactive) | 13.9 µM (inactive) | 9.25 µM (inactive) | 3.31 µM (inactive) | 4.89 µM (inactive) | 16.3 µM (inactive) | 15.6 µM (inactive) | 9.57 µM (inactive) | 17 µM (inactive) | 10 µM (inactive) | – | – | –
